These results are taken from patent US10851073B2, “Protein tyrosine phosphatase inhibitors and methods of use thereof” (Calico Life Sciences LLC, priority 2019, dated 2020).

Usually IC50 stands for the concentration that inhibits the measured activity by half.

Test [1] has as its target T1, His tagged PTPN2 (TC45) protein (Homo sapiens, UniProt P17706).
T1 construct: made in house
T1 sequence (P17706 with tags, fused parts or gaps isoform P17706-2): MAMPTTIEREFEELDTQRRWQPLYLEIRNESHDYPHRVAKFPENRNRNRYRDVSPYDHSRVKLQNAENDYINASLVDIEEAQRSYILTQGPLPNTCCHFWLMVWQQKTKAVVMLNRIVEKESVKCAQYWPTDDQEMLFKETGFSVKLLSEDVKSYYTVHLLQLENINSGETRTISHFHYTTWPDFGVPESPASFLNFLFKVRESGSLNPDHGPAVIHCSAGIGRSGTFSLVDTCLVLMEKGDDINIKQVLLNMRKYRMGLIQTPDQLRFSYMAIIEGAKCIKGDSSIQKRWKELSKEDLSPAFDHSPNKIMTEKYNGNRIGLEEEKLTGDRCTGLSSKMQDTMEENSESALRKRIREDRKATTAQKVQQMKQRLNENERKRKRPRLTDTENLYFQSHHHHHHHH
The test is described as follows: Mobility shift assay used to determine potency of PTPN2 inhibitors. Conditions: enzyme 0.5 nM, substrate 2 μM; read-out: PTPN2 MSA IC50. In kind it is biochemical. The method, then:
Example 227: Mobility Shift Assay Used to Determine Potency of PTPN2 Inhibitors
Compound activity was determined using in house His tagged PTPN2 (TC45) protein (SEQ ID NO: 1) in an in vitro enzymatic reaction. The enzymatic assay used to determine activity was a mobility shift assay using a LabChip EZ Reader by Caliper Life Sciences. The enzymatic reaction was carried out in assay buffer (50 mM HEPES pH 7.5, 1 mM EGTA, 10 mM EDTA, 0.01% Tween® 20, and 2 mM DTT). The compounds were dispensed on a white 384 well ProxiPlate™ (PerkinElmer Catalog #6008289) plate using the Labcyte Echo at varying concentrations (12 point, 1:3 dilution). The enzyme (at 0.5 nM) was incubated with compound for 10 minutes at room temperature. Then the substrate (phosphorylated insulin receptor probe sequence: ((OG488)-(NH—CH2—CH2—O—CH2—CH2—O—CH2—CO)-T-R-D-I-(PY)-E-T-D-Y-Y-R-K-K-NH2) (SEQ ID NO: 2) was added at 2 μM to the plates and incubated for another 10 minutes at room temperature. Finally, a quench solution (water and 4-bromo-3-(2-oxo-2-propoxyethoxy)-5-(3-{[1-(phenylmethanesulfonyl)piperidin-4-yl]amino}phenyl)thiophene-2-carboxylic acid) was added to the plates, which were then run on the EZ Reader (excitation 488 nm, emission 530 nm) to measure % conversion (the amount of phosphorylated substrate which was de-phosphorylated by PTPN2). […] The % inhibition was then used to calculate the IC50 values.

For test [2], the target named is T2, His tagged full-length PTPN1 protein (Homo sapiens, UniProt P18031).
T2 construct: made in house
T2 sequence (P18031 with tags, fused parts or gaps): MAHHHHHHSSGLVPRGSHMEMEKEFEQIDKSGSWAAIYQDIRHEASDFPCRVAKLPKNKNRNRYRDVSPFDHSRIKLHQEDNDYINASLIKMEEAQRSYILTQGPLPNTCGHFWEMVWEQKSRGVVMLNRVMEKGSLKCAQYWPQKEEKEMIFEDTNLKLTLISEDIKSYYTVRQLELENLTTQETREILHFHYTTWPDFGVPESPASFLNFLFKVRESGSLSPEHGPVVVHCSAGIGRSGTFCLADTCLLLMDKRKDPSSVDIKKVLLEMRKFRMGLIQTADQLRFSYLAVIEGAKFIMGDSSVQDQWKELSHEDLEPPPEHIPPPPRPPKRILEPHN
The test is described as follows: Mobility shift assay (MSA) used to determine potency of PTPN1 inhibitors. In kind it is biochemical. Conditions: enzyme 0.5 nM, substrate 2 μM. The method, then: Example 228: Mobility Shift Assay (MSA) Used to Determine Potency of PTPN1 Inhibitors
Compound activity was determined using in house His tagged full-length PTPN1 protein (SEQ ID NO: 3) in an in vitro enzymatic reaction. The enzymatic assay used to determine activity is a mobility shift assay using a LabChip EZ Reader by Caliper Life Sciences. The enzymatic reaction was carried out in assay buffer (50 mM HEPES pH 7.5, 1 mM EGTA, 10 mM EDTA, 0.01% Tween® 20, and 2 mM DTT). The compounds were dispensed on a white 384 well ProxiPlate™ (PerkinElmer Cat^# 6008289) plate using a Labcyte Echo® liquid handler at varying concentrations (12 point, 1:3 dilution). The enzyme (at 0.5 nM) was incubated with compound for 10 minutes at room temperature. Then the substrate (phosphorylated insulin receptor probe sequence: ((OG488)-(NH—CH2—CH2—O—CH2—CH2—O—CH2—CO)-T-R-D-I-(PY)-E-T-D-Y-Y-R-K-K-NH2) (SEQ ID NO: 2) was added at 2 μM to the plates and incubated for another 10 minutes at room temperature. Finally, a quench solution (water and 4-bromo-3-(2-oxo-2-propoxyethoxy)-5-(3-{[1-(phenylmethanesulfonyl)piperidin-4-yl]amino}phenyl)thiophene-2-carboxylic acid) was added to the plates, which were then run on the EZ Reader (excitation 488 nm, emission 530 nm) to measure % conversion (the amount of phosphorylated substrate which was de-phosphorylated by PTPN1). […] The % inhibition was then used to calculate the IC50 values.

`O=C1CN(c2c(O)cc3c(c2F)C[C@@H]([C@H]2CCNC2)CC3)S(=O)(=O)N1` (single isomer, unassigned) [Compound 138, 5-{(7RS)-1-fluoro-3-hydroxy-7-[(3SR)-pyrrolidin-3-yl]-5,6,7,8-tetrahydronaphthalen-2-yl}-1λ^6,2,5-thiadiazolidine-1,1,3-trione]: the half-maximal inhibitory concentration (IC50) in test [1] and in test [2] was 10 to 100 nM each time.
As to `O=C1CN(c2c(O)cc3c(c2F)C[C@@H](NCCCC(F)(F)F)CC3)S(=O)(=O)N1` (single isomer, unassigned) [Compound 147], the IC50 in test [1] and in test [2] was 10 to 100 nM each time.
`CC(C)(CCN[C@H]1CCc2cc(O)c(N3CC(=O)NS3(=O)=O)c(F)c2C1)C(F)(F)F` (single isomer, unassigned) [Compound 176]: the IC50 in test [1] and in test [2] was 10 to 100 nM each time.
Take `CC(C)CCOC1CCc2cc(O)c(N3CC(=O)NS3(=O)=O)c(F)c2C1` (centres unmarked) [Compound 100, 5-[1-fluoro-3-hydroxy-7-(3-methylbutoxy)-5,6,7,8-tetrahydronaphthalen-2-yl]-1λ^6,2,5-thiadiazolidine-1,1,3-trione]: the IC50 in test [1] was 10 to 100 nM; in test [2], 1 to 10 nM.
`O=C1CN(c2c(O)cc3c(c2F)CC(NCCC2CC2)CC3)S(=O)(=O)N1` (centres unmarked) [Compound 101, 5-{7-[(2-cyclopropylethyl)amino]-1-fluoro-3-hydroxy-5,6,7,8-tetrahydronaphthalen-2-yl}-1λ^6,2,5-thiadiazolidine-1,1,3-trione]: the IC50 in test [1] and in test [2] was 1 to 10 nM throughout.
Consider `O=C1CN(c2c(O)cc3c(c2F)CC(CCC2CC2)CC3)S(=O)(=O)N1` (centres unmarked) [Compound 105, 5-[7-(2-cyclopropylethyl)-1-fluoro-3-hydroxy-5,6,7,8-tetrahydronaphthalen-2-yl]-1λ^6,2,5-thiadiazolidine-1,1,3-trione], for which the concentration for half-maximal inhibition (IC50) in test [1] and in test [2] was 1 to 10 nM each time.
As to `COC1CCc2cc(O)c(N3CC(=O)NS3(=O)=O)c(F)c2C1` (centres unmarked) [Compound 110, 5-(1-fluoro-3-hydroxy-7-methoxy-5,6,7,8-tetrahydronaphthalen-2-yl)-1λ^6,2,5-thiadiazolidine-1,1,3-trione], the IC50 in test [1] and in test [2] was 10 to 100 nM each time.
For `COC1CCc2c(F)c(O)c(N3CC(=O)NS3(=O)=O)c(F)c2C1` (centres unmarked) [Compound 114, 5-(1,4-difluoro-3-hydroxy-7-methoxy-5,6,7,8-tetrahydronaphthalen-2-yl)-1λ^6,2,5-thiadiazolidine-1,1,3-trione], the IC50 in test [1] and in test [2] was 10 to 100 nM throughout.
For `O=C1CN(c2c(O)cc3c(c2F)CC(NCCN2CCC2)CC3)S(=O)(=O)N1` (centres unmarked) [Compound 115, 5-(7-{[2-(azetidin-1-yl)ethyl]amino}-1-fluoro-3-hydroxy-5,6,7,8-tetrahydronaphthalen-2-yl)-1λ^6,2,5-thiadiazolidine-1,1,3-trione], the IC50 in test [1] and in test [2] was 10 to 100 nM each time.
With `COCC(C)(C)CCNC1CCc2cc(O)c(N3CC(=O)NS3(=O)=O)c(F)c2C1` (centres unmarked) [Compound 121, 5-{1-fluoro-3-hydroxy-7-[(4-methoxy-3,3-dimethylbutyl)amino]-5,6,7,8-tetrahydronaphthalen-2-yl}-1λ^6,2,5-thiadiazolidine-1,1,3-trione], the IC50 in test [1] lay in the range of 1 to 10 nM; in test [2], 10 to 100 nM.
Take `CC(F)(F)CNC1CCc2cc(O)c(N3CC(=O)NS3(=O)=O)c(F)c2C1` (centres unmarked) [Compound 132, 5-{7-[(2,2-difluoropropyl)amino]-1-fluoro-3-hydroxy-5,6,7,8-tetrahydronaphthalen-2-yl}-1λ^6,2,5-thiadiazolidine-1,1,3-trione]: the 50% inhibitory concentration (IC50) in test [1] and in test [2] was 10 to 100 nM each time.
As to `O=C1CN(c2c(O)cc3c(c2F)CC(NCCn2cccn2)CC3)S(=O)(=O)N1` (centres unmarked) [Compound 141, 5-(1-fluoro-3-hydroxy-7-{[2-(1H-pyrazol-1-yl)ethyl]amino}-5,6,7,8-tetrahydronaphthalen-2-yl)-1λ^6,2,5-thiadiazolidine-1,1,3-trione], the figures for the IC50 in test [1] and in test [2] were 1 to 10 nM and 10 to 100 nM, respectively.
Take `O=C1CN(c2c(O)cc3c(c2F)CC(OC(=O)Nc2ccccc2)CC3)S(=O)(=O)N1` (centres unmarked) [Compound 149, 8-fluoro-6-hydroxy-7-(1,1,4-trioxo-1λ^6,2,5-thiadiazolidin-2-yl)-1,2,3,4-tetrahydronaphthalen-2-yl Phenylcarbamate]: the IC50 was in the range of 1 to 10 nM in test [1] and 10 to 100 nM in test [2].
For the compound `CC(C)CCN(Cc1ccccn1)C1CCc2cc(O)c(N3CC(=O)NS3(=O)=O)c(F)c2C1` (centres unmarked) [Compound 154, 5-(1-fluoro-3-hydroxy-7-{(3-methylbutyl)[(pyridin-2-yl)methyl]amino}-5,6,7,8-tetrahydronaphthalen-2-yl)-1λ^6,2,5-thiadiazolidine-1,1,3-trione], the IC50 lay in the range of 1 to 10 nM in test [1] and 10 to 100 nM in test [2].
Take `CC(C)CCN(CCc1ccccn1)C1CCc2cc(O)c(N3CC(=O)NS3(=O)=O)c(F)c2C1` (centres unmarked) [Compound 167, 5-(1-fluoro-3-hydroxy-7-{(3-methylbutyl)[2-(pyridin-2-yl)ethyl]amino}-5,6,7,8-tetrahydronaphthalen-2-yl)-1λ^6,2,5-thiadiazolidine-1,1,3-trione]: the IC50 in test [1] fell in the range of 1 to 10 nM; in test [2], 10 to 100 nM.
In the case of `CC(O)CCOC(=O)N1CCc2cc(O)c(N3CC(=O)NS3(=O)=O)c(F)c2C1` (centres unmarked) [Compound 171, 3-hydroxybutyl 8-fluoro-6-hydroxy-7-(1,1,4-trioxo-1λ^6,2,5-thiadiazolidin-2-yl)-3,4-dihydroisoquinoline-2(1H)-carboxylate], the half-inhibitory concentration (IC50) in test [1] and in test [2] was 1 to 10 nM each time.
With `CC(C)[C@@H]1CN(C2CCc3cc(O)c(N4CC(=O)NS4(=O)=O)c(F)c3C2)CCO1` (stereo partly drawn) [Compound 182, 5-{1-fluoro-3-hydroxy-7-[(2R)-2-(propan-2-yl)morpholin-4-yl]-5,6,7,8-tetrahydronaphthalen-2-yl}-1λ^6,2,5-thiadiazolidine-1,1,3-trione], the 50% inhibitory concentration (IC50) in test [1] and in test [2] was 10 to 100 nM throughout.
For `O=C1CN(c2c(O)cc3c(c2F)CN(CC2CCCN2)CC3)S(=O)(=O)N1` (centres unmarked) [Compound 183, 5-{8-fluoro-6-hydroxy-2-[(pyrrolidin-2-yl)methyl]-1,2,3,4-tetrahydroisoquinolin-7-yl}-1λ^6,2,5-thiadiazolidine-1,1,3-trione], the half-maximal inhibitory concentration (IC50) in test [1] and in test [2] was > 100 nM throughout.
Turning to `CC(C)OCCNC1CCc2cc(O)c(N3CC(=O)NS3(=O)=O)c(F)c2C1` (centres unmarked) [Compound 186, 5-[1-fluoro-3-hydroxy-7-({2-[(propan-2-yl)oxy]ethyl}amino)-5,6,7,8-tetrahydronaphthalen-2-yl]-1λ^6,2,5-thiadiazolidine-1,1,3-trione], the IC50 in test [1] and in test [2] was 10 to 100 nM each time.
